≈ marks a conversion by molar mass, not a printed value.

Usually IC50 stands for the point on the concentration scale where inhibition reaches its midpoint.

In assay [1] the test system is S. cerevisiae yeast cells (YMR4, INVSC). Description: Yeast growth in suspension with ATP and drug (turbidity). To be noted: 100 mM ATP, 48 hours. The format is cell-based, Saccharomyces cerevisiae. The method, then:
Cell lines: Cell lines were the same as those described above in Example 4 and 5. YMR4 MDRI is the phosphatase mutant yeast strain overexpressing AtPGP-1; YMR4 pVT011 contains vector alone; INVSC MDRI is the wild-type yeast strain overexpressing AtPGP-1; and INVSC pVT101 contains vector alone.
Selection in drug: To create drug resistant yeast strains, all four cell lines were grown up in the presence of 500 ng/ml of cycloheximide, and transferred to other cycloheximide containing plates after a period of four to six days. This transfer of cell lines and subculturing continued such that the yeast cells grew in the presence of cycloheximide for a period of at least a month. Cells cultured in media alone: To create cell lines that had not been preselected for their ability to grow in drug, yeast strains were grown on plates containing YNB (Bio101, Vista, Calif.) without uracil (-URA) to maintain the presence of the vector (which supplies URA) without any drugs added.
Growth of cells in suspension for ATP and drug selection experiments: Cells were transferred into 5 ml YNB-URA liquid media for turbidity measurements. All cell lines (both non-drug selected and drug-selected) were grown in media with the addition of either nothing, 500 ng/ml cycloheximide, 100 mM ATP, or 500 ng/ml cycloheximide and 100 mM ATP. Turbidity readings were taken after 48 hours.

The test system of assay [2] is SW-13. As to the kind of experiment: IC50 test (NTT), 96 well plate, vinblastine sensitive parent line. The format is cell-based. The settings on record: Homo sapiens, SW13, 96 h, read-out: IC50 (sensitive at). Here is the method:
(§1) In order to determine the effect of ectophosphatase inhibitors on tumor cells resistant to a chemotherapeutic agent, 2 […] tumor cell lines were tested, a vinblastine resistant line (SW-13Vb003) and its vinblastine sensitive parent line, SW-13. A standard 4 day incubation at 37° C. and 5% CO2 was used. IC50 tests (NTT) were done using standard methodology in 96 well plate format with inhibitor concentrations ranging from 0-90 μg/ml (DMEM media). […] For NGXT194, SW-13 was sensitive at 20 μg/ml, whereas the vinblastine resistant line SW-13Vb003 was sensitive at 10 μg/ml. For NGXT196, SW-13 was sensitive at 30 μg/ml, whereas the vinblastine resistant line SW-13Vb003 was sensitive at 10 μg/ml. For NGXT1915, SW-13 was sensitive at 50 μg/ml, whereas the vinblastine resistant line SW-13Vb003 was sensitive at 20 μg/ml.

The test system of assay [3] is SW-13Vb003. As to the kind of experiment: IC50 test (NTT), 96 well plate, vinblastine resistant line. To be noted: 96 h, read-out: IC50 (sensitive at). The format is cell-based. The method, then: as §1
The test system of assay [4] is ectoapyrase activity associated with the plasma membrane of cholinergic nerve terminal of Torpedo mannorata electric organs. To be noted: Torpedo electric organ nerve terminal plasma membrane; cited from earlier work.
Assay [5] deals with YMR4 yeast. As to the kind of experiment: Yeast growth in suspension, adenosine salvage pathway experiments (turbidity). The format is cell-based, Saccharomyces cerevisiae. To be noted: added to media with cycloheximide, 72 hours. The method, then:
Selection in drug: To create drug resistant yeast strains, all four cell lines were grown up in the presence of 500 ng/ml of cycloheximide, and transferred to other cycloheximide containing plates after a period of four to six days. This transfer of cell lines and subculturing continued such that the yeast cells grew in the presence of cycloheximide for a period of at least a month.
Growth of cell lines in suspension for salvage pathway experiments: All cell lines were grown in liquid media either containing drug (for the drug selected lines) or not containing drug (for the non-drug selected lines). When the cultures reached a turbidity of 1.00 as measured at a wavelength of 600 in a spectrophotometer (OD600=1.00), 10 μl of each culture was then removed and placed in either media with nothing added, 3 mM potassium phosphate; 3 mM adenosine; 9 mM potassium phosphate and 3 mM adenosine (for controls); potassium phosphate and cycloheximide; adenosine and cycloheximide; adenosine, cycloheximide, and potassium phosphate. Cell cultures were further grown for 72 hours, and their turbidity was determined by OD600 readings on a spectrophotometer.

Assay [6] concerns wild-type Arabidopsis thaliana plants. Description: Arabidopsis germination selection assay, wild-type plants. The format is in vivo. To be noted: cycloheximide 500 ng/ml, phosphatase inhibitor 1 mM, 10-20 days. Here is the method:
Plant growth: Arabidopsis thaliana seeds were sown in a solid germination media containing MS salt, 2% sucrose, 0.8% agar, and vitamins (Valvekens et al., 1992). For selection assays, cycloheximide was spread on the media to achieve a final concentration of […]. Plant growth was measured by germination percentage after 6-30 days.
(§2) Plant Growth: Arabidopsis seeds were sown in a solid germination media containing MS salts (Sigma Chemical, St. Louis, Mo.), 2% sucrose, 0.8% agar, and vitamins (Valvekens et al., 1992). For selection assays, one of the following, or a combination of both, was added to media (cooled to less than 50° C. before adding) immediately prior to pouring into plates: cycloheximide at a final concentration of 500 ng/ml; α,β-methyleneadenosine 5′-diphosphate at a final concentration of 1 mM. Plant growth was measured by germination percentage after 10-20 days.
All other materials and methods were discussed above in Example 4.

The test system of assay [7] is YMR4 yeast. As to the kind of experiment: Yeast drug selection growth assay, phosphatase deficient mutant. The format is cell-based, Saccharomyces cerevisiae. An excerpt: (§3) Expression of AtPGP-1 in yeast: The AtPGP-1 cDNA (Arabidopsis thaliana MDR gene, accession #X61370) was subcloned into pVT101 downstream of the ADH promoter to create the AtPGP-1/pVT101 construct. AtPGP-1/pVT101 and pVT101 were transformed into Saccharomyces cerevisiae INVSCI (genotype: MATa, his3-Δ1, leu2, trpl-289, ura3-52) and YMR4 (genotype: MATαhis3-11,15, leu2-3, 112ura3Δ5, can Res pho5, 3::ura3A1) by a PEG lithium acetate procedure (Eble, 1992) and selected on uracil dropout medium.
(§4) Yeast Growth: Yeast were grown at 30° C. under conditions of constant selection for uracil auxotrophy. YNB (Bio101, Vista, Calif.) supplemented with CSM (uracil dropout) and 2% glucose was used to grow strains having pVT101 constructs. Cycloheximide (Sigma Chemical, St. Louis, Mo.) was added to liquid media or spread on solid media to achieve a final concentration of 500 ng/ml. Nigencm (Sigma Chemical, St. Louis, Mo.) was added to liquid media or spread on solid media to achieve a final concentration of 25 μg/ml. Yeast strains used in cycloheximide selection assays were always propagated in the presence of the cycloheximide on plates and then streaked onto new plates containing drug or no drug, such that induced resistance existed in each strain at the time of the start of the assay. […] Yeast selection assays in liquid media were quantitated by turbidity as measured by absorbance at OD600.

Assay [8] relates to AtPGP-1 overexpressing (MDR OE) Arabidopsis thaliana plants. The format is in vivo. The settings on record: AtPGP-1 overexpressing plants; cycloheximide 500 ng/ml, phosphatase inhibitor 1 mM; 10-20 days.
Source text: Similar methods were employed to express AtPGP-1 in Arabidopsis thaliana plants with the following modifications. […] This plasmid was then transformed into A. tumefaciens as described above, which was used to infect root calli to produce transgenic plants expressing AtPGP-1.
as §2

Assay [9] relates to INVSCI yeast. Description: Yeast drug selection growth assay, wild-type strain. The format is cell-based, Saccharomyces cerevisiae. The settings on record: cycloheximide 500 ng/ml.
Source text: as §3, §4

Take `Nc1ncnc2c1ncn2[C@@H]1O[C@H](COP(=O)(O)OP(=O)(O)OP(=O)(O)O)[C@@H](O)[C@H]1O` [ATP]: the “yeast growth in high levels of ATP” value in assay [1] (cells not previously selected in drug) is “able to grow”; in assay [1] (cells previously grown in drug (resistant), not overexpressing AtPGP-1), “not able to grow”.
`Cc1ccc(O)c(/C=N/NC(=O)Cc2cccc3ccccc23)c1` [NGXT194]: the IC50 in [2] is 20 µg/mL (≈ 62.8 µM); in assay [3] it was 10 µg/mL (≈ 31.4 µM).
Turning to `O=C(Cc1cccc2ccccc12)N/N=C/c1ccc(Br)cc1` [NGXT196], the IC50 in assay [2] turned out to be 30 µg/mL (≈ 81.7 µM); in [3], 10 µg/mL (≈ 27.2 µM).
For the compound `C/C(=N\NC(=O)c1cccc(C)c1)c1ccc2ccccc2c1` [NGXT1915], the half-maximal inhibitory concentration (IC50) was 50 µg/mL (≈ 165 µM) in assay [2] and 20 µg/mL (≈ 66.1 µM) in assay [3].
As for `Cc1ccc(C(=O)Nc2ccc(S(=O)(=O)O)c3cc(S(=O)(=O)O)cc(S(=O)(=O)O)c23)cc1NC(=O)c1cccc(NC(=O)Nc2cccc(C(=O)Nc3cc(C(=O)Nc4ccc(S(=O)(=O)O)c5cc(S(=O)(=O)O)cc(S(=O)(=O)O)c45)ccc3C)c2)c1` [Suramin, 8,8′[Carbonylbis[imino-3,1-phenylenecarbonylimino(4-methyl-3,1-phenylene)carbonylimino]]bis-1,3,5-naphthalenetrisulfonic acid], in assay [4], the “inhibition of ectoapyrase activity” value is “potent non-competitive inhibitor”.
On to `Nc1ncnc2c1ncn2[C@@H]1O[C@H](CO)[C@@H](O)[C@H]1O` [adenosine], for which the “effect on resistance of yeast cells to cycloheximide” value in [5] is “did not enhance resistance”.
In the case of `C[C@@H]1C[C@@H]([C@H](O)CC2CC(=O)NC(=O)C2)C(=O)[C@@H](C)C1` [cycloheximide], the germination rate in assay [6] was found to be 2%; in [8] it was 50%. For the same compound, the “yeast growth in drug” value in assay [7] (YMR4 mutant, cycloheximide 500 ng/ml) is given as “did not grow”; in [9], “did grow”.
Turning to `CO[C@@H]1C[C@@H](C[C@H]2CC[C@H](C)[C@H]([C@@H](C)C(=O)O)O2)O[C@]2(O[C@](C)([C@H]3CC[C@@](C)([C@@H]4O[C@@H]([C@H]5O[C@@](O)(CO)[C@H](C)C[C@@H]5C)C[C@@H]4C)O3)C[C@H]2C)[C@@H]1C` [nigericin], in assay [7] (YMR4 containing vector alone, nigericin 25 μg/ml), the “yeast growth in drug” value is “reduced growth”.
In the case of `Nc1ncnc2c1ncn2[C@@H]1O[C@H](COP(=O)(O)CP(=O)(O)O)[C@@H](O)[C@H]1O` [phosphatase inhibitor, α,β-methyleneadenosine 5′-diphosphate], the germination rate in assay [6] turned out to be 90%; in [8], 83%.
On to `O=P(O)(O)O` [phosphate, potassium phosphate], for which, in [5], the “effect on resistance of yeast cells to cycloheximide” value is “did not enhance resistance”.

The record behind these values is patent US20060276339A1, “Methods and compositions for increasing the efficacy of biologically-active ingredients” (priority 2002, published 2006).
